CCOC(=O)c1c(CSc2ccccc2)n(C)c2cc(Br)c(O)c(CN(C)C)c12.Cl.O
solubility (mole fraction)
Conditions	293.15 K	298.15 K	303.15 K	308.15 K	313.15 K	318.15 K	323.15 K	328.15 K	333.15 K
in DMF	0.0228	0.0244	0.0276	0.0317	0.0351	0.0396	0.0457	0.0513	0.0596
in NMP	0.0325	0.0352	0.0375	0.0417	0.0462	0.0503	0.0554	0.0635	0.0722
in THF	0.000382	0.000492	0.000678	0.000947	0.00125	0.00163	0.00211	0.00265	–
in acetone	0.000193	0.000252	0.000364	0.000524	0.000696	0.000937	0.00128	–	–
in ethanol	0.00973	0.0116	0.0132	0.0154	0.018	0.0234	0.0294	0.0366	0.0436
in ethyl acetate	7.86e-05	0.000101	0.000125	0.000158	0.0002	0.000245	0.000295	0.000354	0.000426
in isopropanol	0.00114	0.00161	0.0021	0.0029	0.00356	0.00476	0.00602	0.00749	0.00955
in methanol	0.0405	0.0442	0.0494	0.0541	0.0622	0.0715	0.0786	0.0903	–
in n-butanol	0.00344	0.00441	0.00545	0.00709	0.00865	0.0105	0.0127	0.0159	0.0203
in n-propanol	0.00522	0.00628	0.00728	0.00878	0.0112	0.0141	0.0171	0.0214	0.027
in water	5.82e-05	7.34e-05	8.66e-05	0.000108	0.000126	0.000156	0.000204	0.000251	0.000309

From BigSolDB 2.1
